Results published in patent publication US12441985B2, “Methods for making insulin in vivo” (priority 2009, dated 2025).
Several values for one entry are separate records, joined by “and”; a condition that tells them apart may be missing. Identical values can stand only once. Like-named read-outs stand apart in the source and are kept apart here.

Legend:
Assay type in all cases: cell-based
[1] = test system: human embryonic stem cells line H1; conditions: for type of insulin expressing cells formed: 500 nM, after six days; for GCG (glucagon expressing cells), percentage of the total cell population / INS (single insulin expressing cells), percentage of the total cell population / INS/GCG (insulin and glucagon co-expressing cells), percentage of the total cell population / Synaptophysin, percentage of the total cell population: Stage 4 six days, TPB 500 nM, ILV 500 nM, GÖ 6976 5 μM, FACS
Experimental: Other protein kinase C activators were also tested. These were Indolactam V (ILV) (Axxora; Cat #ALX-420-011-C300) and phorbol-12-myristate-13-acetate (PMA) (Calbiochem; Cat #524400).

[2] = test system: human embryonic stem cells line H1; assay: Immunocytochemistry of insulin and glucagon expression after Stage 4 TPB treatment (Example 1)
Experimental: Cells of the human embryonic stem cells line H1 were cultured on MATRIGEL® (1:30 dilution) (BD Biosciences; Cat #356231)-coated dishes with RPMI medium (Invitrogen; Cat #: 22400)+0.2% FBS+100 ng/ml activin A (PeproTech; Cat #120-14)+20 ng/ml WNT-3a (R&D Systems; Cat #1324-WN/CF) for one day followed by treatment with RPMI media+0.5% FBS+100 ng/ml activin A for an additional two days (Stage 1), then, • DMEM/F12 (Invitrogen; Cat #11330-032)+2% FBS+50 ng/ml FGF7 (PeproTech; Cat #100-19) for three days (Stage 2), then • DMEM-High glucose (Invitrogen; Cat #10569)+1% B27+50 ng/ml FGF7+0.25 μM Cyclopamine-KAAD (Calbiochem; Cat #239804)+100 ng/ml Noggin (R&D Systems; Cat #3344-NG) for four days (Stage 3), then • DMEM-High glucose+1% B27 (Invitrogen; Cat #0791)+100 ng/ml Noggin+1 μM ALK5 inhibitor II (Axxora; Cat #ALX-270-445)+500 nM TBP ((2S, 5S)-(E, E)-8-(5-(4-(Trifluoromethyl)phenyl)-2,4-pentadiemoylamino) benzolactam) (Calbiochem; Cat #565740) for six days (Stage 4).
As a control, separate populations of cells were treated with DMEM-High glucose+1% B27+100 ng/ml Noggin+1 μM ALK5 inhibitor II for six days (Stage 4, control group). […] Glucagon-expressing cells were also noted in the cultures that received TBP treatment. Most of the glucagon-expressing cells also co-expressed insulin (FIG. 1 panel A and B). […]

[3] = test system: human embryonic stem cell line H1; assay: Pancreatic endoderm marker expression after Stage 3 TPB treatment (Example 6)
Experimental: Briefly, cells of the human embryonic stem cell line H1 were cultured on MATRIGEL® (1:30 dilution) coated dishes and RPMI medium supplemented with 0.2% FBS, 100 ng/ml activin A and 20 ng/ml WNT-3a for one day, followed by treatment with RPMI media supplemented with 0.5% FBS and 100 ng/ml activin A, for an additional two days (Stage 1), then • DMEM/F12+2% FBS+50 ng/ml FGF7 for three days (Stage 2), then • T1: DMEM-High glucose+1% B27+0.25 μM Cyclopamine-KAAD+2 μM Retinoic acid (RA)+100 ng/ml of Noggin+FGF10 50 ng/ml for four days (Stage 3, T1) or, • T2: DMEM-High glucose+1% B27+0.25 μM Cyclopamine-KAAD+2 μM Retinoic acid (RA)+100 ng/ml of Noggin+FGF10 50 ng/ml+100 nM TPB for four days (Stage 3, T2), then • DMEM-High glucose+1% B27+100 ng/ml Noggin+1 μM ALK5 inhibitor II for six days (Stage 4)
NKX6.1 was undetectable by immunohistochemistry.

[4] = test system: human embryonic stem cells line H1; assay: FACS and immunocytochemistry after Stage 4 treatment with different concentrations of TPB (Example 1); conditions: for INS, percentage of the total cell population / NKX6.1, percentage of the total cell population / NKX6.1/INS, percentage of the total cell population / Synaptophysin, percentage of the total cell population: Stage 4 six days
Experimental: In a separate experiment, cells of the human embryonic stem cells line H1 were cultured on MATRIGEL® (1:30 dilution) coated dishes with RPMI medium+0.2% FBS+100 ng/ml activin A+20 ng/ml WNT-3a for one day followed by treatment with RPMI media+0.5% FBS+100 ng/ml activin A for an additional two days (Stage 1), then • a. DMEM/F12+2% FBS+50 ng/ml FGF7 for three days (Stage 2), then • b. DMEM-High glucose+1% B27+0.25 μM Cyclopamine-KAAD+2 μM Retinoic acid (RA)+100 ng/ml of Noggin for four days (Stage 3), then • c. Treatment 1: DMEM-High glucose+1% B27+100 ng/ml Noggin+1 μM ALK5 inhibitor II+500 nM TBP for six days (Stage 4, Treatment 1), or • d. Treatment 2: DMEM-High glucose+1% B27+100 ng/ml Noggin+1 μM ALK5 inhibitor II+100 nM TBP for six days (Stage 4, Treatment 2), or • e. Treatment 3: DMEM-High glucose+1% B27+100 ng/ml Noggin+1 μM ALK5 inhibitor II+20 nM TBP for six days (Stage 4, Treatment 3), or • f. Treatment 4: DMEM-High glucose+1% B27+100 ng/ml Noggin+1 μM ALK5 inhibitor II for six days (Stage 4, Treatment 4).
Immunocytochemistry analysis was used to assess the effects of the different concentrations of TPB on the formation of the cells of the present invention. […] FACS analysis confirmed that both treatments gave rise to 12% single insulin expressing cells in vitro and […] of that population also expressed NKX6.1 (Table 1—NKX6.1/INS expressing cells were 2.4% of the total population).

[5] = test system: human embryonic stem cells line H1; assay: FACS after six, nine or twelve days of Stage 4 TPB treatment (Example 3); conditions: 500 nM TPB
Experimental: In another experiment, cells of the human embryonic stem cells line H1 were cultured on […]® (1:30 dilution) coated dishes with RPMI medium+0.2% FBS+100 ng/ml activin A+20 ng/ml WNT-3a for one day followed by treatment with RPMI media+0.5% FBS+100 ng/ml activin A for an additional two days (Stage 1), then • DMEM/F12+2% FBS+50 ng/ml FGF7 for three days (Stage 2), then • DMEM-High glucose+1% B27+50 ng/ml FGF7+0.25 μM Cyclopamine-KAAD+2 μM Retinoic acid (RA)+100 ng/ml of Noggin+20 ng/ml Activin A+a p38 kinase inhibitor (JNJ3026582, at 2.5 μM) for four days (Stage 3), then • Treatment 10: DMEM-High glucose+1% B27+100 ng/ml Noggin+1 μM ALK5 inhibitor II+500 nM TPB for six days (Stage 4, Treatment 10), or • Treatment 11: DMEM-High glucose+1% B27+100 ng/ml Noggin+1 μM ALK5 inhibitor II+500 nM TPB for nine days (Stage 4, Treatment 11), or • Treatment 12: DMEM-High glucose+1% B27+100 ng/ml Noggin+1 μM ALK5 inhibitor II+500 nM TPB for twelve days (Stage 4, Treatment 12)

[6] = 100 nM TPB at Stage 3 for four days (T2) compared to control group (T1)
[7] = both 500 nM and 100 nM TPB treatments, FACS
[8] = cultures treated with TPB, immunocytochemistry
[9] = Stage 4 for nine days (Treatment 11)
[10] = Stage 4 for six days (Treatment 10)
[11] = Stage 4 for twelve days (Treatment 12)

## CC(C)[C@H]1C(=O)N[C@H](CO)Cc2c[nH]c3cccc(c23)N1C [ILV, Indolactam V]
[1]; immunocytochemistry
  type of insulin expressing cells formed: cells co-expressing insulin and glucagon
[1]
  GCG (glucagon expressing cells), percentage of the total cell population: 12% and 12.6%
  INS (single insulin expressing cells), percentage of the total cell population: 3%
  INS/GCG (insulin and glucagon co-expressing cells), percentage of the total cell population: 12.9%
  Synaptophysin, percentage of the total cell population: 56.8%

## CCCCCCCCCCCCCC(=O)O[C@@H]1[C@@H](C)[C@@]2(O)[C@@H](C=C(CO)C[C@]3(O)C(=O)C(C)=C[C@@H]23)[C@@H]2C(C)(C)[C@]12OC(C)=O [PMA, phorbol-12-myristate-13-acetate]
[1]; immunocytochemistry
  type of insulin expressing cells formed: cells co-expressing insulin and glucagon

## CC(C)[C@H]1C(=O)N[C@H](CO)Cc2cc(NC(=O)/C=C/C=C/c3ccc(C(F)(F)F)cc3)ccc2N1C [TPB, (2S, 5S)-(E, E)-8-(5-(4-(Trifluoromethyl)phenyl)-2,4-pentadiemoylamino) benzolactam]
[2]; 500 nM at Stage 4 for six days with Noggin and ALK5 inhibitor II, vs control without it, immunocytochemistry
  insulin-expressing cells: increase
[2]; 500 nM at Stage 4 for six days, share of insulin expressing cells
  insulin expressing cells that are single endocrine hormone expressing cells (no glucagon, somatostatin, ghrelin): about 60%
[3]; 100 nM TPB at Stage 3 for four days (T2)
  NKX6.1 by immunohistochemistry: undetectable
[3]; [6]
  expression of NKX6.1: significant down-regulation
  expression of PDX1: significant down-regulation
  expression of PTF1 alpha: significant down-regulation
[4]; 20 nM TPB, similar to the control group, immunocytochemistry
  insulin and glucagon co-expression: most cells co-expressed insulin and glucagon
[4]; 500 nM and 100 nM TPB treatment groups, immunocytochemistry
  number of single insulin-expressing cells: Significant increases
[4]; TPB 100 nM, FACS
  INS, percentage of the total cell population: 14.4%
  NKX6.1, percentage of the total cell population: 34.8%
  NKX6.1/INS, percentage of the total cell population: 3.1%
  Synaptophysin, percentage of the total cell population: 47.6%
[4]; TPB 500 nM, FACS
  INS, percentage of the total cell population: 9.4%
  NKX6.1, percentage of the total cell population: 45.7%
  NKX6.1/INS, percentage of the total cell population: 2.4%
  Synaptophysin, percentage of the total cell population: 38.3%
[4]; [7]
  single insulin expressing cells: 12%
  single insulin expressing population that also expressed NKX6.1: 15%
[1]; immunocytochemistry
  type of insulin expressing cells formed: demonstrated the formation of single insulin expressing cells
[1]
  GCG (glucagon expressing cells), percentage of the total cell population: 4.6%
  INS (single insulin expressing cells), percentage of the total cell population: 12%
  INS/GCG (insulin and glucagon co-expressing cells), percentage of the total cell population: 7.1%
  Synaptophysin, percentage of the total cell population: 30.6%
[1]; [8]
  insulin expressing cells that co-expressed NEUROD: majority
  insulin expressing cells that co-expressed NKX6.1: 20%
  insulin expressing cells that co-expressed PDX1: 20%
  insulin expressing cells that co-expressed somatostatin or ghrelin (GHRL): Very few
[5]; [9]
  Glucagon, percentage of the total cell population: 6.6%
  Insulin, percentage of the total cell population: 10.0%
  Insulin/Glucagon, percentage of the total cell population: 7.8%
  NKX6.1, percentage of the total cell population: 33.5%
  NKX6.1/Insulin, percentage of the total cell population: 1.0%
  Synaptophysin, percentage of the total cell population: 43.5%
[5]; [10]
  Glucagon, percentage of the total cell population: 2.0%
  Insulin, percentage of the total cell population: 27.8%
  Insulin/Glucagon, percentage of the total cell population: 16.4%
  NKX6.1, percentage of the total cell population: 44.2%
  NKX6.1/Insulin, percentage of the total cell population: 11.0%
  Synaptophysin, percentage of the total cell population: 49.7%
[5]; [11]
  Glucagon, percentage of the total cell population: 4%
  Insulin, percentage of the total cell population: 4.4%
  Insulin/Glucagon, percentage of the total cell population: 6.3%
  NKX6.1, percentage of the total cell population: 32.5%
  NKX6.1/Insulin, percentage of the total cell population: 1.0%
  Synaptophysin, percentage of the total cell population: 37.6%
